For 52 compounds, IC50 results are on record in patent publication US12295396B2, “Antagonists of T2R54 and compositions and uses thereof” (Firmenich Incorporated, priority 2018, dated 2025).

As usually defined, the IC50 is the point on the concentration scale where inhibition reaches its midpoint.

The structures appear in SMILES notation.

The target in one assay is T1, hT2R54 (Homo sapiens, UniProt P59534).
T1 construct: expressed in transfected cells; it overexpresses a promiscuous G protein
T1 sequence (P59534 1-338): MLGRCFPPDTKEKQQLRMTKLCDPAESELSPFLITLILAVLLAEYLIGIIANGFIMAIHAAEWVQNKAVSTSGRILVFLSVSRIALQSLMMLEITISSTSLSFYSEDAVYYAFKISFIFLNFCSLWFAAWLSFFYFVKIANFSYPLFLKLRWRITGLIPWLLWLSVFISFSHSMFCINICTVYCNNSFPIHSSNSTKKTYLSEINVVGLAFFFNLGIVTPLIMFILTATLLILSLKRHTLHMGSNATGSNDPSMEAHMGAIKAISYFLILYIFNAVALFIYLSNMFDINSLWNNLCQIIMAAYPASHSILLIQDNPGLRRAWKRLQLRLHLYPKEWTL
Kind of assay: Cell-based assay for measuring hT2R54 inhibition (FLIPR calcium, Fluo4AM, acetaminophen as bitter agonist). Particulars: Table 2; cells stably expressing hT2R54 and a promiscuous G protein; read-out: hT2R54 IC50. The protocol: Cells stably expressing hT2R54 and a promiscuous G protein were seeded in 384 well plates 24 hours prior to the experiment. Cells were loaded with the calcium indicator Fluo4AM, washed and loaded in a FLIPR instrument with a compound plate containing increasing doses of acetaminophen in quadruplicates and prepared at 2× of final concentration. Baseline was recorded for 10 seconds, then 25 μl of […] was added onto 25 μl of cells and resulting changes in fluorescence were monitored over an additional 3 minutes. The host cell line overexpressing the G protein but not hT2R54 was treated as described above.
The ability of a test compound that blocks bitter taste elicited through hT2R54 was measured in this assay, as follows. Cells stably expressing hT2R54 and a promiscuous G protein were seeded in 384 well plates 24 hours prior to the experiment. Cells were loaded with the calcium indicator Fluo4AM, washed and loaded in a FLIPR instrument with a compound plate containing increasing doses of acetaminophen in buffer and increasing doses of acetaminophen with depicted fixed concentrations of Cmpd 109 (Table 4). Base line was recorded for 10 seconds, then 25 μl of compound and compound mixtures were added onto 25 μl of cells and resulting changes in fluorescence were monitored over an additional 3 minutes. The concentration of test compound that blocks half of the response when the bitter compound alone is present is presented as the EC50 or IC50 value.
In the examples above, the EC50 of compounds for blocking bitter taste elicited through T2R54 was measured in the same manner.
Consider `CC(=O)c1cc2c(cc1NC(=O)CN1CCN(C(=O)Cc3cccc(F)c3)CC1)OCO2` [compound 59], for which the concentration for half-maximal inhibition (IC50) stood at 0.2 µM.
Still for that read-out and setting: next, `CC(=O)c1cc2c(cc1NC(=O)CN1CCN(C(=O)Cc3ccncc3)CC1)OCO2` [compound 60]: 0.08 µM.
On the same count and under the same terms, the result for `CC(=O)c1cc2c(cc1NC(=O)CN1CCN(C(=O)Cc3ccc(O)cc3)CC1)OCO2` [compound 61] reads 0.05 µM.
Still for that read-out and setting: the result for `COc1ccc(CC(=O)N2CCN(CC(=O)Nc3cc4c(cc3C(C)=O)OCO4)CC2)cc1` [compound 62] reads 0.2 µM.
With `CC(=O)c1cc2c(cc1NC(=O)CN1CCN(C(=O)Cc3ccc(F)cc3)CC1)OCO2` [compound 63], the IC50 worked out at 0.4 µM.
With `CC(=O)c1cc2c(cc1NC(=O)CN1CCN(C(=O)Cc3ccco3)CC1)OCO2` [compound 64], the IC50 amounted to 0.1 µM.
Still for that read-out and setting: the result for `CC(=O)c1cc2c(cc1NC(=O)CN1CCN(C(=O)Cc3cccs3)CC1)OCO2` [compound 65] reads 0.03 µM; that for `CC(=O)c1cc2c(cc1NC(=O)CN1CCN(C(=O)c3cnn(C)c3)CC1)OCO2` [compound 66], 0.017 µM; that for `CC(=O)c1cc2c(cc1NC(=O)CN1CCN(C(=O)c3ccc(C)s3)CC1)OCO2` [compound 67], 0.015 µM.
On to `CC(=O)c1cc2c(cc1NC(=O)CN1CCN(C(=O)c3sccc3C)CC1)OCO2` [compound 68], for which the IC50 was 0.03 µM.
Same read-out and setting: the result for `CC(=O)c1cc2c(cc1NC(=O)CN1CCN(C(=O)c3c(C)noc3C)CC1)OCO2` [compound 69] reads 0.04 µM; that for `CC(=O)c1cc2c(cc1NC(=O)CN1CCN(C(=O)c3ccon3)CC1)OCO2` [compound 70], 0.02 µM.
For `CC(=O)c1cc2c(cc1NC(=O)CN1CCN(C(=O)c3ccn(C)n3)CC1)OCO2` [compound 71], the IC50 was determined as 0.05 µM.
Turning to `CC(=O)c1cc2c(cc1NC(=O)CN1CCN(C(=O)c3cnco3)CC1)OCO2` [compound 72], the IC50 was found to be 0.06 µM.
On the same count and under the same terms, the result for `CC(=O)c1cc2c(cc1NC(=O)CN1CCN(C(=O)c3cc(C)cs3)CC1)OCO2` [compound 73] reads 0.08 µM; that for `CC(=O)c1cc2c(cc1NC(=O)CN1CCN(C(=O)c3cn(C)nc3C)CC1)OCO2` [compound 74], 0.2 µM; that for `CC(=O)c1cc2c(cc1NC(=O)CN1CCN(C(=O)c3cnon3)CC1)OCO2` [compound 75], 0.1 µM.
Still for that read-out and setting: the result for `CC(=O)c1cc2c(cc1NC(=O)CN1CCN(C(=O)c3nc(C)oc3C)CC1)OCO2` [compound 76] reads 0.07 µM; that for `CC(=O)c1cc2c(cc1NC(=O)CN1CCN(C(=O)c3ccn(C)c3)CC1)OCO2` [compound 77], 0.03 µM.
As for `CC(=O)c1cc2c(cc1NC(=O)CN1CCN(C(=O)c3cn(C)nn3)CC1)OCO2` [compound 78], the IC50 was 0.03 µM.
As for `CC(=O)c1cc2c(cc1NC(=O)CN1CCN(C(=O)c3ccoc3)CC1)OCO2` [compound 79], the concentration for half-maximal inhibition (IC50) amounted to 0.03 µM.
With `CC(=O)c1cc2c(cc1NC(=O)CN1CCN(C(=O)c3cc4ccccc4o3)CC1)OCO2` [compound 80], the 50% inhibitory concentration (IC50) was found to be 0.5 µM.
`CC(=O)c1cc2c(cc1NC(=O)CN1CCN(C(=O)c3ccc(C)o3)CC1)OCO2` [compound 81]: the IC50 came to 0.004 µM.
Same read-out and setting: next, `CCCCC(=O)N1CCN(CC(=O)Nc2cc3c(cc2OC)OCO3)CC1` [compound 82]: 0.54 µM; `CCOC(=O)N1CCN(CC(=O)Nc2cc3c(cc2OC)OCO3)CC1` [compound 83]: 0.52 µM; `CCCOC(=O)N1CCN(CC(=O)Nc2cc3c(cc2OC)OCO3)CC1` [compound 84]: 0.24 µM.
The same measure, in the same setting: the result for `COc1cc2c(cc1NC(=O)CN1CCN(C(=O)C3CCCO3)CC1)OCO2` (stereo not shown) [compound 85] reads 1.16 µM; that for `COc1cc2c(cc1NC(=O)CN1CCN(C(=O)C3CCCCO3)CC1)OCO2` (stereo not shown) [compound 86], 1.14 µM.
Turning to `COc1cc2c(cc1NC(=O)CN1CCN(C(=O)CC3CCOCC3)CC1)OCO2` [compound 87], the IC50 was 1.04 µM.
Same read-out and setting: the result for `COc1cc2c(cc1NC(=O)CN1CCN(C(=O)c3ccco3)CC1)OCO2` [compound 88] reads 0.13 µM.
Regarding `COc1cc2c(cc1NC(=O)CN1CCN(C(=O)c3ccc(C)o3)CC1)OCO2` [compound 89], the IC50 stood at 0.08 µM.
Take `COc1cc2c(cc1NC(=O)CN1CCN(C(=O)c3ccccc3F)CC1)OCO2` [compound 90]: the IC50 was 0.2 µM.
The same measure, in the same setting: next, `COc1cc2c(cc1NC(=O)CN1CCN(C(=O)c3ccccc3OC)CC1)OCO2` [compound 91]: 0.28 µM.
`COc1cc2c(cc1NC(=O)CN1CCN(C(=O)c3ccccc3O)CC1)OCO2` [compound 92]: the IC50 was 0.44 µM.
The same measure, in the same setting: next, `COc1cc2c(cc1NC(=O)CN1CCN(C(=O)c3cccc(O)c3)CC1)OCO2` [compound 93]: 0.43 µM; `COc1cc2c(cc1NC(=O)CN1CCN(C(=O)c3ccccn3)CC1)OCO2` [compound 94]: 1.51 µM; `COc1cc2c(cc1NC(=O)CN1CCN(C(=O)c3cccnc3)CC1)OCO2` [compound 95]: 1.34 µM.
Same read-out and setting: the result for `COc1cc2c(cc1NC(=O)CN1CCN(C(=O)c3ccncc3)CC1)OCO2` [compound 96] reads 1.44 µM; that for `COc1cc2c(cc1NC(=O)CN1CCN(C(=O)c3ccc(F)cc3)CC1)OCO2` [compound 97], less than 1 µM.
The same measure, in the same setting: the result for `COc1cc2c(cc1NC(=O)CN1CCN(C(=O)c3ccn(C)n3)CC1)OCO2` [compound 98] reads 1.08 µM.
For `COc1ccccc1CC(=O)N1CCN(CC(=O)Nc2cc3c(cc2OC)OCO3)CC1` [compound 99], the half-inhibitory concentration (IC50) worked out at 0.6 µM.
Consider `COc1cc2c(cc1NC(=O)CN1CCN(C(=O)Cc3ccccc3O)CC1)OCO2` [compound 100], for which the IC50 came to 0.43 µM.

Still in this assay, the particulars now being: Table 3; cells stably expressing hT2R54 and a promiscuous G protein; read-out: hT2R54 IC50.
Consider `CC(=O)c1cc2c(cc1NC(=O)CN1CCN(Cc3ccccc3)CC1)OCO2` [compound 101, N-(6-acetylbenzo[d][1,3]dioxol-5-yl)-2-(4-benzylpiperazin-1-yl)acetamide], for which the IC50 was 1.06 µM.
`CC(=O)c1cc2c(cc1NC(=O)CN1CCN(Cc3ccccc3F)CC1)OCO2` [compound 102]: the half-maximal inhibitory concentration (IC50) stood at 0.5 µM.
On to `CC(=O)c1cc2c(cc1NC(=O)CN1CCN(Cc3cccc(F)c3)CC1)OCO2` [compound 103], for which the IC50 came out at 0.5 µM.
Still for that read-out and setting: the result for `CC(=O)c1cc2c(cc1NC(=O)CN1CCN(Cc3ccc(F)cc3)CC1)OCO2` [compound 104] reads 0.6 µM; that for `COc1ccc(F)cc1CN1CCN(CC(=O)Nc2cc3c(cc2C(C)=O)OCO3)CC1` [compound 105], 0.09 µM.
With `CC(=O)c1cc2c(cc1NC(=O)CN1CCN(Cc3ccccn3)CC1)OCO2` [compound 106], the half-maximal inhibitory concentration (IC50) came to 0.3 µM.
The same measure, in the same setting: the result for `CC(=O)c1cc2c(cc1NC(=O)CN1CCN(Cc3nc4ccccc4s3)CC1)OCO2` [compound 107] reads 4.18 µM; that for `CC(=O)c1cc2c(cc1NC(=O)CN1CCN(C(C(N)=O)c3ccccc3)CC1)OCO2` (stereo not shown) [compound 108], 1.76 µM.

The same assay, now with this note: Table 4; cells stably expressing hT2R54 and a promiscuous G protein; read-out: hT2R54 IC50.
Regarding `CC(=O)c1cc2c(cc1NC(=O)CN1CCOCC1)OCO2` [compound 109, N-(6-acetylbenzo[d][1,3]dioxol-5-yl)-2-morpholinoacetamide], the IC50 is 0.588 µM.
On the same count and under the same terms, next, `CC(=O)c1cc2c(cc1NC(=O)C(C)N1CCOCC1)OCO2` (stereo not shown) [compound 110, N-(6-Acetylbenzo[d][1,3]dioxol-5-yl)-2-morpholinopropanamide]: 0.359 µM.
